Measurements taken from ChEMBL document CHEMBL1128660, “Synthesis and fungicidal activity of 2,2-bipyridine derivatives” (1995).

Tests used:
Assay type in all cases: functional
Botrytis cinerea [1] = assay: Fungicidal activity (under greenhouse conditions against Cucumber botrytis (Botrytis cinerea) at 200 ppm
Blumeria graminis [2] = assay: Fungicidal activity under greenhouse conditions against Wheat powdery mildew (Erisyphe graminis) at 200 ppm at 200 ppm
Phytophthora infestans = assay: Fungicidal activity under greenhouse conditions against Tomato late blight (Phtyopthora infestans) at 200 ppm
Plasmopara viticola [3] = assay: The fungicidal activity (percent disease control) under greenhouse conditions against Grape downy mildew (Plasmopara viticola) at 40 ppm
Pyricularia grisea [4] = assay: Fungicidal activity under greenhouse conditions against Rice blast (Pyricularia oryzae) at 200 ppm
Oculimacula yallundae [5] = assay: Fungicidal activity under greenhouse conditions against Wheat foot rot (Pseudocercosporella herpotrichoides) at 200 ppm.
Puccinia recondita [6] = assay: Fungicidal activity under greenhouse conditions against Wheat leaf rust (Puccinia recondita) at 200 ppm
Parastagonospora nodorum [7] = assay: The fungicidal activity (percent disease control) under greenhouse conditions against Wheat septoria (Septoria nodorum) at 200 ppm
Thanatephorus cucumeris = assay: Fungicidal activity under greenhouse conditions against Rice sheath blight (Rhizoctonia solani) at 200 ppm
Blumeria graminis [8] = assay: The fungicidal activity (percent disease control) under greenhouse conditions against Wheat powdery mildew (Erisyphe graminis) at 200 ppm at 200 ppm; shows curative effect
Parastagonospora nodorum [9] = assay: The fungicidal activity (percent disease control) under greenhouse conditions against Wheat septoria (Septoria nodorum) at 40 ppm; shows curative effect
Plasmopara viticola [10] = assay: The fungicidal activity (percent disease control) under greenhouse conditions against Grape downy mildew (Plasmopara viticola) at 200 ppm
Puccinia recondita [11] = assay: The fungicidal activity (percent disease control) under greenhouse conditions against Wheat leaf rust (Puccinia recondita) at 40 ppm; shows curative effect
Puccinia recondita [12] = assay: The fungicidal activity (percent disease control) under greenhouse conditions against Wheat leaf rust (Puccinia recondita) at 200 ppm; shows curative effect
Parastagonospora nodorum [13] = assay: The fungicidal activity (percent disease control) under greenhouse conditions against Wheat septoria (Septoria nodorum) at 200 ppm; shows curative effect
Parastagonospora nodorum [14] = assay: The fungicidal activity (percent disease control) under greenhouse conditions against Wheat septoria (Septoria nodorum) at 40 ppm
Botrytis cinerea [15] = assay: The fungicidal activity (percent disease control) under greenhouse conditions against Cucumber botrytis (Botrytis cinerea) at 40 ppm
Blumeria graminis [16] = assay: The fungicidal activity (percent disease control) under greenhouse conditions against Wheat powdery mildew (Erisyphe graminis) at 40 ppm […]
Pyricularia grisea [17] = assay: The fungicidal activity (percent disease control) under greenhouse conditions against Rice blast (Pyricularia oryzae) at 200 ppm; shows curative effect
Blumeria graminis [18] = assay: The fungicidal activity (percent disease control) under greenhouse conditions against Wheat powdery mildew (Erisyphe graminis) at 40 ppm; shows curative effect
Puccinia recondita [19] = assay: The fungicidal activity (percent disease control) under greenhouse conditions against Wheat leaf rust (Puccinia recondita) at 40 ppm
Oculimacula yallundae [20] = assay: The fungicidal activity (percent disease control) under greenhouse conditions against Wheat foot rot (Pseudocercosporella herpotrichoides) at 40 ppm

Row | SMILES | Disease control (Botrytis cinerea [1]) [%] | Disease control (Blumeria graminis [2]) [%] | Disease control (Phytophthora infestans) [%] | Disease control (Pyricularia grisea [4]) [%] | Disease control (Oculimacula yallundae [5]) [%] | Disease control (Puccinia recondita [6]) [%] | Disease control (Parastagonospora nodorum [7]) [%] | Disease control (Thanatephorus cucumeris) [%] | Disease control (Blumeria graminis [8]) [%] | Disease control (Parastagonospora nodorum [9]) [%] | other results
1 | COc1ccc(-c2ccc(-c3ccccn3)nc2)cc1 | 0 | 92 | 0 | 97 | 75 | 93 | 40 | 19 | – | – | Disease control (Plasmopara viticola [3]): 65%
2 | Clc1ccc(-c2ccc(-c3ccccn3)nc2)cc1 | 0 | – | 0 | 97 | 81 | 65 | 98 | 100 | 99 | – | Disease control (Plasmopara viticola [3]): 50%
3 | CCCCCCCCCCCCc1ccnc(-c2cc(CCCCCCCCCCCC)ccn2)c1 | 0 | 0 | 0 | 0 | 0 | – | – | 0 | – | – | –
4 | CCCCCc1ccnc(-c2cc(CCCCC)ccn2)c1 | 0 | 92 | 0 | 27 | 0 | 90 | – | 93 | – | – | –
5 | O=[N+]([O-])c1ccccc1-c1ccnc(-c2ccccn2)c1 | 41 | 0 | 24 | 32 | 0 | 67 | – | 0 | – | 76 | –
6 | c1ccc(-c2ccnc(-c3ccccn3)c2)cc1 | 0 | – | 0 | 74 | 0 | – | – | 0 | 95 | 94 | Disease control (Plasmopara viticola [10]): 96%; Disease control (Puccinia recondita [11]): 11%
7 | Cc1ccc(-c2ccc(-c3ccccn3)nc2)cc1 | 59 | – | 0 | 32 | 0 | – | – | 0 | 99 | – | Disease control (Puccinia recondita [12]): 84%; Disease control (Parastagonospora nodorum [13]): 95%
8 | Cc1ccc(-c2ccccn2)nc1 | 0 | 24 | 0 | 0 | 0 | 0 | 0 | 0 | – | – | Disease control (Plasmopara viticola [10]): 0%
9 | CC(C)c1ccnc(-c2cc(C(C)C)ccn2)c1 | 0 | 38 | 0 | 67 | 12 | – | – | 73 | – | – | –
10 | COc1ccccc1-c1ccnc(-c2ccccn2)c1 | 0 | – | 24 | 32 | 0 | 85 | – | 0 | 93 | – | Disease control (Parastagonospora nodorum [14]): 27%
11 | Cc1ccnc(-c2ccc(-c3ccccc3)cn2)c1 | – | – | 0 | 32 | 69 | 93 | – | 0 | – | 96 | Disease control (Botrytis cinerea [15]): 28%; Disease control (Blumeria graminis [16]): 47%
12 | Cc1ccnc(-c2cc(-c3ccccc3)ccn2)c1 | 30 | 99 | 0 | 53 | 66 | 99 | – | 81 | – | 19 | –
13 | c1ccc(OCc2ccc(-c3ccccn3)nc2)cc1 | 0 | 11 | 0 | 0 | 0 | 0 | 0 | 0 | – | – | –
14 | c1ccc(-c2ccc(-c3ccccn3)nc2)cc1 | 45 | – | 23 | – | 0 | – | 100 | 0 | 100 | – | Disease control (Plasmopara viticola [10]): 96%; Disease control (Pyricularia grisea [17]): 87%; Disease control (Puccinia recondita [11]): 60%
15 | COc1ccccc1-c1ccnc(-c2cc(C)ccn2)c1 | 0 | – | 0 | 53 | 86 | – | – | 81 | – | 12 | Disease control (Blumeria graminis [18]): 30%; Disease control (Puccinia recondita [19]): 19%
16 | Brc1ccc(-c2ccc(-c3ccccn3)nc2)cc1 | 0 | – | 0 | 0 | 0 | 20 | – | 0 | 19 | 58 | –
17 | CCCCc1ccnc(-c2cc(CCCC)ccn2)c1 | 0 | 21 | 0 | 85 | 44 | 33 | – | 93 | – | – | –
18 | O=[N+]([O-])c1ccc(-c2ccc(-c3ccccn3)nc2)cc1 | 0 | 0 | 0 | 0 | 0 | 0 | 0 | 0 | – | – | Disease control (Plasmopara viticola [10]): 60%
19 | Fc1ccc(-c2ccc(-c3ccccn3)nc2)cc1 | 0 | – | 24 | 32 | – | 64 | – | 100 | 55 | 32 | Disease control (Oculimacula yallundae [20]): 27%
